From US10106627B2, “Process for the preparation of polymeric biosurfactants” (priority 2014, dated 2018)
Converted amounts (≈) assume the structure as drawn. *1 amine or outer side, *2 acyl side, *3 side chain or, on linkers, in order; H or OH if unused. Where a SMILES comes first, the peptide text is derived from it. Bridges are numbered along the chain shown (N, C = ends). [ ]: non-standard residue; d: D form. X1 = CC(C)CCCCCCCCC[C@H](CC(=O)[*:1])O[*:2]

Columns and labels:
[1] = DPPH free radical scavenging assay (cell free); assay type: biochemical; settings: 35° C., 30 min
Method: (§1) The antioxidant activity of Microsan from Microbacterium sp. strain BS-2 and Brevisan from Brevibacillus sp. strain BS-207 in cell free system was measured by its inhibitory activity on the generation of DPPH free radicals, superoxide anions (O^2−), lipid peroxidation and erythrocyte hemolysis. The DPPH free radical scavenging assay was performed using 2,2-diphenyl-1-picrylhydrazyl (DPPH) free radical scavenging method [Ara. N. and Hasan, N. (2009) Res. J. Med. Medical Sci. 4, 107-110]. Different concentrations of Microsan and Brevisan were mixed individually with 150 μl of 160 μM methanolic solution of DPPH and incubated at 35° C. for 30 min in dark. The effective concentration (EC50) was calculated by measuring the absorbance of the samples at 517 nm. The superoxide anion scavenging was measured using phenazine methosulfate-nicotinamide adenine dinucleotide (PMS/NADH) method as previously described [Liu, F., Ooi, V. E. and Chang, S. T. (1997) Life Sci. 60, 763-771]. The lipid peroxidation assay was performed using the previously described method [Zhang, Q., Yu, P., Li, Z., Zhang, H., Xu, Z. and Li, P. (2003) J. Appl. Phycol. 15, 305-310] which is based on measuring the lipid peroxide decomposed product malondialdehyde (MDA). […] Samples were incubated at 37° C. for 30 min and the absorbance was measured at 540 nm. […]

[2] = system: erythrocytes; experiment: Erythrocyte hemolysis assay (H2O2); assay type: cell-based; settings: Erythrocyte, 0.5 h; human erythrocytes, H2O2, 37° C., 30 min; read-out: EC50 erythrocyte hemolysis inhibition
Method: as §1

[3] = Superoxide anion scavenging (PMS/NADH method); assay type: biochemical; settings: cell free
Method: as §1

[4] = Lipid peroxidation assay (malondialdehyde); assay type: biochemical; settings: cell free
Method: as §1

[5] = system: Staphylococcus aureus MLS16 MTCC 2940; experiment: Microtiter broth dilution MIC; assay type: cell-based; settings: Staphylococcus aureus MLS16 MTCC 2940, 24 h, 35° C.
Method: (§2) The antimicrobial activity of Microsan and M-EPS-Au-NP was determined using the microtiter broth dilution method [Kumar, C. G. and Mamidyala, S. K. (2011) Coll. Surf B: Biointerf. 84, 462-466]. Different bacterial pathogens (10^7 cfu ml^−1 cells) were inoculated in 100 μl of Muller-Hinton broth. Different concentrations of Microsan, M-EPS-Au-NP and Brevisan were added to each strain and incubated for 24 h at 35° C. After incubation, 40 μl of p-iodonitrotetrazolium (INT, Sigma) dye (0.02%, 20 mg INT dissolved in 100 ml of 40% dimethyl formamide was added to each well and incubated for 2 h. The reduction of p-iodonitrotetrazolium was spectroscopically measured at 450 nm using TRIAD multimode reader (Dynex Technologies, Inc., Chantilly, Va.) to determine the minimum inhibitory concentration (MIC) values. Commercially available surfactin (CAS 24730-31-2; Sigma-Aldrich) and laminarin (CAS No 9008-22-4; Sigma-Aldrich) used as positive controls were run in parallel for comparison. The MIC values of Microsan and M-EPS-Au-NP observed against the tested bacterial strains are shown in Table 3.

[6] = system: Pseudomonas aeruginosa MTCC 2453; experiment: Microtiter broth dilution MIC; assay type: cell-based; settings: Pseudomonas aeruginosa MTCC 2453, 24 h, 35° C.
Method: as §2

[7] = system: Staphylococcus aureus MTCC 96; experiment: Microtiter broth dilution MIC; assay type: cell-based; settings: Staphylococcus aureus MTCC 96, 24 h, 35° C.
Method: as §2

[8] = system: Micrococcus luteus MTCC 2470; experiment: Microtiter broth dilution MIC; assay type: cell-based; settings: Micrococcus luteus MTCC 2470, 24 h, 35° C.
Method: as §2

[9] = system: Escherichia coli MTCC 739; experiment: Microtiter broth dilution MIC; assay type: cell-based; settings: Escherichia coli MTCC 739, 24 h, 35° C.
Method: as §2

[10] = system: Bacillus subtilis MTCC 121; experiment: Microtiter broth dilution MIC; assay type: cell-based; settings: Bacillus subtilis MTCC 121, 24 h, 35° C.
Method: as §2

[11] = system: Klebsiella planticola MTCC 530; experiment: Microtiter broth dilution MIC; assay type: cell-based; settings: Klebsiella planticola MTCC 530, 24 h, 35° C.
Method: as §2

O=C1O[C@H]([C@@H](O)CO)C(O)=C1O [ascorbic acid, reference compound]
EC50 DPPH free radical scavenging [1]: 40.28 µg/mL (≈ 229 µM)
EC50 [2]: 120 µg/mL (≈ 680 µM)
EC50 superoxide anions (O^2−) scavenging [3]: 21.1 µg/mL (≈ 120 µM)
EC50 lipid peroxidation inhibition [4]: 130.97 µg/mL (≈ 744 µM)

CC(C)CCCCCCCCC[C@@H]1CC(=O)N[C@@H](CCC(=O)O)C(=O)N[C@@H](CC(C)C)C(=O)N[C@H](CC(C)C)C(=O)N[C@@H](C(C)C)C(=O)N[C@@H](CC(=O)O)C(=O)N[C@H](CC(C)C)C(=O)N[C@@H](CC(C)C)C(=O)O1 [Surfactin] (EL[dL]VD[dL]L; linker N-C via X1)
MIC ([5]; MTCC2940, read-out: Minimum inhibitory concentration (MIC)): 18.8 µg/mL (≈ 18.1 µM)
MIC ([6]; MTCC2453, read-out: Minimum inhibitory concentration (MIC)): 18.8 µg/mL (≈ 18.1 µM)
MIC ([7]; MTCC96, read-out: Minimum inhibitory concentration (MIC)): 9.37 µg/mL (≈ 9.04 µM)
MIC ([8]; MTCC2470, read-out: Minimum inhibitory concentration (MIC)): 18.8 µg/mL (≈ 18.1 µM)
MIC ([9]; MTCC739, read-out: Minimum inhibitory concentration (MIC)): 9.37 µg/mL (≈ 9.04 µM)
MIC ([10]; MTCC121, read-out: Minimum inhibitory concentration (MIC)): 4.68 µg/mL (≈ 4.52 µM)
MIC ([11]; MTCC530, read-out: Minimum inhibitory concentration (MIC)): 9.37 µg/mL (≈ 9.04 µM)

Laminarin
Minimum inhibitory concentration (MIC) [5]: 37.5 µg/mL
Minimum inhibitory concentration (MIC) [6]: 4.68 µg/mL
Minimum inhibitory concentration (MIC) [7]: 18.75 µg/mL
Minimum inhibitory concentration (MIC) [8]: 4.68 µg/mL
Minimum inhibitory concentration (MIC) [9]: 18.75 µg/mL
Minimum inhibitory concentration (MIC) [10]: 9.37 µg/mL
Minimum inhibitory concentration (MIC) [11]: 4.68 µg/mL
